For 17 molecules, IC50 results are on record in patent US5753709A, “N-acyl-2 aryl cyclopropylmethylamine derivatives as melatonergics” (Bristol-Myers Squibb Company, priority 1996, dated 1998).

In the first assay the target is T1, human melatonin receptor (human ML1A) (Homo sapiens, UniProt P48039).
T1 construct: expressed in transfected cells; host or cells: COS-1 cells (transient, pcDNAI, DEAE-dextran); membrane homogenates
T1 sequence (P48039 whole entry): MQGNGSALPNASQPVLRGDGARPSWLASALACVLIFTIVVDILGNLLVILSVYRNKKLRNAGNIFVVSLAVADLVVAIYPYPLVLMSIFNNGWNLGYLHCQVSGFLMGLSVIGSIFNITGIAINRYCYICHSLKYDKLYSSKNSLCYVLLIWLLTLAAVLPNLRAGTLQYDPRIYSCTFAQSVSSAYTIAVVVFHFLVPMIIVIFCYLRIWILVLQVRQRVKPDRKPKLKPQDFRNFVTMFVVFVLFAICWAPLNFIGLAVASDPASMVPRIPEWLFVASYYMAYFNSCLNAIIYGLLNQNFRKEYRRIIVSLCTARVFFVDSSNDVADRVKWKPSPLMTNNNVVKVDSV
The experiment in a line: Melatonergic binding: displacement of 2-[125I]-iodomelatonin at the human melatonin receptor (human ML1A in COS-1 membranes). The conditions noted are these: Table 5; displacement of 2[125I]-Iodomelatonin (100 pM), 37° C., 1 hour. As for the experimental part: The melatonergic binding of the compounds of Formula I was determined by a modification of the method of Reppert, S. M. et al. (Neuron, Volume 13, pages 1177-1185, 1994). […] The reagents, membranes, and other parameters used in the assay are described below:
(a) 50 mM Tris buffer containing 12.5 mM MgCl2, and 2 mM EDTA (pH 7.4 at 37° C.).
(b) Wash buffer: 20 mM Tris base containing 2 mM MgCl2 (pH 7.4 at room temperature).
(c) 6-Chloromelatonin (10^-5 M final concentration).
(d) 2-[^125 I]-Iodomelatonin (100 pM final concentration). (Source: NEN) Membrane preparation: The cDNA (human ML1A) in pcDNAI was introduced into COS-1 cells by the DEAE-dextran method. Three days later, after media removal, the plates were washed with buffered saline; the cells removed using Hank's balanced salt solution and pelleted. The supernant was discarded and the pellets frozen. For membrane homogenates, the pellets were thawed and resuspended in TME buffer, Tris base, MgCl2, EDTA (pH 7.4 at 37° C.), and supplemented with aprotinin, leupeptin, and phenylmethylsulfonyl fluoride. The cells were homogenized and centrifuged; the resulting pellet resuspended in TME and frozen. At assay, the small aliquot was thawed on ice and resuspended in TME buffer. Incubation: 37° C. for 1 hour. Reaction is terminated by filtration.
As a reminder, the IC50 is the concentration at which inhibition is half-maximal. `CCCC(=O)NC[C@@H]1C[C@H]1c1cccc(OCCCc2ccccc2)c1` (relative stereo) [Example 95, (trans)-N-[[2-[3[(3-Phenylprop-1-yl)oxy]phenyl]cycloprop-1-yl]methyl] butanamide]: the IC50 lay in the range of 5 to 40 nM.

In the case of `CCCC(=O)NC[C@@H]1C[C@H]1c1cccc(OCCCOc2ccccc2)c1` (relative stereo) [Example 96, (trans)-N-[[2-[3[(3-Phenoxyprop-1-yl)oxy]phenyl]cycloprop-1-yl]methyl] butanamide], the IC50 lay in the range of 5 to 40 nM.

For the molecule `CCCC(=O)NC[C@@H]1C[C@H]1c1cccc(OCCCn2cccc2)c1` (relative stereo) [Example 98], the IC50 fell in the range of 5 to 40 nM.

In the case of `CCCC(=O)NC[C@@H]1C[C@H]1c1cccc(OCC=C(C)CCC=C(C)C)c1` (relative stereo) [Example 99, (trans)-N-[[2-[3[(3-Dimethylocta-2,6-dien-1-yl)oxy]phenyl]cycloprop-1-yl]methyl] butanamide], the IC50 is 5 to 40 nM.

Consider `CCCC(=O)NC[C@@H]1C[C@H]1c1cccc(OCCCCC(C)C)c1` (relative stereo) [Example 100, (trans)-N-[[2-[3-(5-Methylhexyloxy)phenyl]cycloprop-1-yl]methyl] butanamide], for which the concentration for half-maximal inhibition (IC50) lay within 5 to 40 nM.

With `CCCC(=O)NC[C@@H]1C[C@H]1c1cccc(OCC=C(C)CCC=C(C)CCC=C(C)C)c1` (relative stereo) [Example 103, (trans)-N-[[2-[3-[(3-,7,11-Trimethyldodeca-2,6,10-trien-1-yl)oxy]phenyl]cycloprop-1-yl]methyl] butanamide], the IC50 is below 5 nM.

`C=CCCCOc1cccc([C@@H]2C[C@H]2CNC(=O)CCC)c1` (relative stereo) [Example 105] displayed a concentration for half-maximal inhibition (IC50) of 5 to 40 nM.

In turn, `CCCC(=O)NC[C@@H]1C[C@H]1c1cccc(OCCC=C(C)C)c1` (relative stereo) [Example 106, (trans)-N-[[2-[3-(4-Methyl-3-penten-1-yloxy)phenyl]cycloprop-1-yl]methyl] butanamide] returned an IC50 of 5 to 40 nM.

In turn, `CCCC(=O)NC[C@@H]1C[C@H]1c1cccc(OCCCCC(C)(C)C#N)c1` (relative stereo) [Example 107] gave an IC50 of 40 to 250 nM.

`CCCC(=O)NC[C@@H]1C[C@H]1c1cccc(OCCCC(=O)OC)c1` (relative stereo) [Example 108]: the IC50 was 40 to 250 nM.

Regarding `CCCC(=O)NC[C@@H]1C[C@H]1c1cccc(OCCCCCc2ccccc2)c1` (relative stereo) [Example 110, (trans)-N-[[2-[3-[(5-Phenylpent-1-yl)oxy]phenyl]cycloprop-1-yl]methyl] butanamide], the IC50 is below 5 nM.

`CCCC(=O)NC[C@@H]1C[C@H]1c1cccc(CC)c1` (relative stereo) [Example 114, (trans)-N-[2-[(3-Ethylphenyl)cycloprop-1-yl]methyl] butanamide] displayed an IC50 of 5 to 40 nM.

`CCCC(=O)NC[C@@H]1C[C@H]1c1cccc(OCCCCC2CCCCC2)c1` (relative stereo) [Example 116] yielded an IC50 of 5 to 40 nM.

As to `CCCC(=O)NC[C@@H]1C[C@H]1c1cccc(OCCCC2CCCC2)c1` (relative stereo) [Example 120, (trans)-N-[[2-[3-[(3-Cyclopentylprop-1-yl)oxy]phenyl]cycloprop-1-yl]methyl] butanamide], the IC50 was below 5 nM.

`CCCC(=O)NC[C@@H]1C[C@H]1c1cccc(OCCC(C)CC(C)(C)C)c1` (relative stereo) [Example 121] showed a half-maximal inhibitory concentration (IC50) of 5 to 40 nM.

Consider `C#CC(C)=CCOc1cccc([C@@H]2C[C@H]2CNC(=O)CCC)c1` (relative stereo) [Example 122], for which the IC50 was in the range of 5 to 40 nM.

The same assay, now with this note: read-out: Binding affinity (IC50) at the human melatonin receptor; Table 5; displacement of 2[125I]-Iodomelatonin (100 pM), 37° C., 1 hour.
`[2H]C([2H])([2H])Oc1cccc([C@@H]2C[C@H]2CNC(=O)CCC)c1` (relative stereo) [Example 111, (trans)-N-[2-[(3-Trideuteromethoxyphenyl)cycloprop-1-yl]methyl] butanamide]: the IC50 was below 5 nM.
